Experimental data: patent US20070154990A1, “Assays for identifying inhibitors of fatty acid amide hydrolase” (priority 2005, published 2007)
Positions count from the first letter of the chain named. Like-named read-outs stand apart in the source and are kept apart here. Values belong to the compound of their own block, whether it stands above or below them.

Legend:
[1] = target: T1, human FAAH (Homo sapiens, UniProt O00519); assay: [3H]-anandamide (AEA) hydrolysis by FAAH microsomes; assay type: biochemical
T1 construct: His6; made in house; host or cells: CHO cells, stably transfected; microsomal fraction used
T1 sequence (O00519 1-579): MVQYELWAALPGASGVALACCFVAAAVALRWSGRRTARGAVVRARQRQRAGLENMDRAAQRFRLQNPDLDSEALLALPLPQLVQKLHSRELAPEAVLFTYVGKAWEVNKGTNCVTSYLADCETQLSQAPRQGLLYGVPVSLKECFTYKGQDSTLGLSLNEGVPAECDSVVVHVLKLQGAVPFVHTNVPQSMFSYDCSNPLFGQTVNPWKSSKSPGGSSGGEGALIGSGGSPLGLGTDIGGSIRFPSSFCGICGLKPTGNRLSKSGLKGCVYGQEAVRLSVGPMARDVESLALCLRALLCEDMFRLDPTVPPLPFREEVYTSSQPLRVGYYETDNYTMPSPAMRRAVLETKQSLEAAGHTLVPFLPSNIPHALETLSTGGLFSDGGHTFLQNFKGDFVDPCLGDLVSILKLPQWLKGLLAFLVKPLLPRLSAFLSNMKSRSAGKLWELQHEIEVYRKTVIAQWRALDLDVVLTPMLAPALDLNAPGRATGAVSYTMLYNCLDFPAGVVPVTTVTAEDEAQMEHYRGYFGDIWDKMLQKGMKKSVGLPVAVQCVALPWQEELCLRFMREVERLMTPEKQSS
Experimental: 0.5 μg of human FAAH microsomes were incubated with 1 μM [^3H]-AEA substrate and indicated concentrations of MAEA in assay buffer at room temperature for 2 hours. Released [^3H]-ethanolamine was extracted by chloroform/methanol and counted.
Panel (B) Effect of MAEA on the kinetics of AEA hydrolysis by FAAH-containing microsomes. 0.5 μg of the microsomes comprising FAAH were incubated with the indicated [^3H]-AEA concentrations for 30 minutes with or without 10 μM of MAEA. Released [^3H]-ethanolamine was measured in a scintillation counter.
Microsomes (0.5 μg/assay) prepared from CHO cells expressing human FAAH, were incubated with the indicated concentrations of anandamide (ethanolamine 1-[^3H]) for 30 min at 25° C. in 50 mM HEPES, pH 7.4, 1 mM EDTA and 0.1% BSA. The reaction was terminated by the addition of 2 volumes of chloroform/methanol (1:1, v/v). The samples were vortexed and centrifuged at 1000 g for 3 minutes. The aqueous phase, containing [^3H]-ethanolamine, was collected and measured by liquid scintillation counting. Results are presented as the mean±S.E. of triplicate measurements from at least two independent experiments. The observed rate constants (apparent Km) were calculated using GraphPad Prism 3.02, based on a Michaelis-Menten (one site binding hyperbola) equation Y=BmaxX/[Km+X].
The AEA hydrolysis assays were performed according to the protocols described in Example 1. 0.5 μg of FAAH-containing microsomes per assay were incubated with 8 different concentrations (in a range from 1 μM to 10 μM) of compound in the presence of 1 μM […] in 50 mM HEPES, pH 7.5, 1 mM EDTA, 0.1% BSA at room temperature for 2 hours. ^3H-ethanolamine released from AEA hydrolysis was measured by liquid scintillation counting. Results were analyzed using a sigmoidal dose-response equation by GraphPad Prism 3.02. Numerical results are the mean of triplicate measurements from at least two independent experiments.

[2] = target: T1, human FAAH; assay: FAAH SPA binding assay (displacement of [3H]-MAEA from FAAH-containing microsomes); settings: for IC50: 3 hours room temperature
Experimental: FIG. 3. One embodiment of a FAAH SPA assay. […] The radioactivity was counted on a TopCount™ for one minute per sample. Each point shown is the mean±SD of triplicates from at least two independent experiments.
FIG. 7. Inhibition of the binding of [^3H]-MAEA to FAAH-containing microsomes by FAAH inhibitors in SPA. The assay was carried out by incubating 5 μg of FAAH microsomes with 100 nM [^3H]-MAEA and 0.5 mg of WGA beads in 50 mM HEPES, 1 mM EDTA, pH 7.4, 0.1% BSA, with inhibitors in a 200 μL total reaction volume, at room temperature for 3 hours. The final concentration of DMSO in the assay was 0.5%. IC50 values were calculated by fitting the curve to a non-linear regression equation. Each point is the mean±SD of triplicate data from at least two independent experiments.
The SPA assay consisted of 100 nM [^3H]-MAEA (60 Ci/mmol), […] FAAH microsomes and 0.5 mg PVT-WGA beads in buffer (50 mM HEPES, pH 7.4, 1 mM EDTA and 0.1% BSA). The assays were performed in 96 well plates with a final volume of 200 μL. Components were added to the assay plates, which were agitated on a plate shaker for 3-4 hours at room temperature. The assays were then counted on a TopCount NXT (PerkinElmer, Boston, Mass.) for one minute per well. Results presented are the mean±S. E. of triplicate measurements from at least two independent experiments. The IC50 values were calculated using the GraphPad Prism 3.02 program, based on a sigmoidal dose-response equation. The screening window coefficient (Z′-factor) was calculated according to the following equation as previous described (See Zhang, J. H., T. D. Chung, and K. R. Oldenburg, A simple statistical parameter for use in evaluation and validation of high throughput screening assays, J Biomol Screen, 1999, 4: 67-73): Z=1−(3σc++3σc−)/|μc+−μc−| where, σc+ and σc− are standard deviations of positive and negative controls and μc+ and μc− are means of positive and negative controls respectively.
Assays were performed by incubating 0.5 mg of PVT-WGA beads, 100 nM [3H]-MAEA, and 5 μg of FAAH-containing microsomes. Assays were incubated in the wells of 96-well plates.

[3] = target: T2, inactive FAAH-S241A (Homo sapiens, UniProt O00519, S241A); assay: SPA binding of [3H]-MAEA to microsomes with inactive FAAH-S241A mutant; settings: 5 μg microsomes containing inactive FAAH-S241A
T2 construct: His6; made in house; host or cells: CHO cells, stably transfected; microsomal fraction used
T2 sequence (O00519 1-579 S241A): T1 sequence (O00519 1-579) with S241A
Experimental: (§1) FIG. 4. […] The relative activity of FAAH-containing microsomes or those prepared from cells expressing FAAH-S241A or vector control was measured by increasing the microsomal protein concentration ranging from 0-10 μg/assay. 100 nM of [^3H]-MAEA and 0.5 mg of WGA SPA beads were incubated with indicated concentrations of microsomes at 25° C. for 3 hours. Radioactivity was measured in a TopCount™. The SPA signal (CPM) was plotted against amount of microsomal protein in the assay. Each point is the mean±SD of triplicate data from at least two independent experiments.
(§2) Cells were collected by centrifugation at 2000 g for 10 minutes at 4° C. in a Sorvall high-speed centrifuge. The cell pellet was then washed 3 times with PBS and resuspended in buffer containing 50 mM HEPES, pH 7.4, 1 mM EDTA, 1 μM pepstatin, 100 μM leupeptin, 0.1 mg/mL aprotinin. The cells were sonicated 5 times for 10 seconds at 15-second intervals and the cell lysate was further centrifuged at 12000 g for 20 minutes at 4° C. The supernatant was centrifuged at 100,000 g for 30 minutes in a SW28 rotor in a Beckman Optima LE-80K centrifuge. The pellet obtained was the microsomal fraction, which was resuspended in ice-cold buffer. Protein concentration was measured by the BCA method (Pierce) and the microsomal suspension adjusted to 1 mg/mL and stored in aliquots at −80° C. until use. […]

[4] = target: T3, FAAH microsomes (Homo sapiens, UniProt O00519); assay: Hydrolysis of [3H]-MAEA by FAAH microsomes; assay type: biochemical; settings: 5 μg FAAH microsomes over 5 hours
T3 construct: His6; made in house; host or cells: CHO cells, stably transfected; microsomal fraction used
T3 sequence (O00519 1-579): T1 sequence (O00519 1-579)
From the text: R(+)-methanandamide (R-(+)-arachidonyl-1-′-hydroxy-2′-propylamide, MAEA) is an anandamide analog with a methyl group at the 1′-position of the ethanolamido head group. […] The effects of MAEA on FAAH-catalyzed anandamide hydrolysis was also examined using FAAH-containing microsomes.

[5] = SPA binding of [3H]-MAEA to microsomes from CHO cells containing only vector; design: species or system Chinese hamster; settings: 5 μg microsomes from cells containing only vector
Experimental: as §1, §2

[6] = 0.5 μg FAAH-containing microsomes, 1 μM radiolabelled substrate, room temperature 2 hours, read-out: AEA hydrolysis (IC50)
[7] = 5 μg FAAH microsomes, 100 nM [3H]-MAEA, 0.5 mg WGA beads

Compound: CCCCC/C=C\C/C=C\C/C=C\C/C=C\CCCC(=O)NCCO [AEA, arachidonyl ethanolamide]
- Km ([1]; FAAH-containing microsomes, without MAEA, read-out: apparent Km for AEA (no inhibitor)): 9.1 µM

- IC50 [1, 6]: 2.3 nM
- IC50 [2, 7]: 3.1 nM
Compound: CCCCCCCCCCCC(=O)c1nc2ncccc2o1 [CAY-10400]

Compound: CCCCC/C=C\C/C=C\C/C=C\C/C=C\CCCC(=O)N[C@H](C)CO [MAEA, R-(+)-arachidonyl-1-′-hydroxy-2′-propylamide]
- specific binding of [3H]-MAEA to microsomes [3]: 6.5%
- IC50 ([1]; 0.5 μg human FAAH microsomes, 1 μM [3H]-AEA, 2 hours, read-out: IC50 of inhibition of FAAH-catalyzed anandamide hydrolysis): 7400 nM
- mode of inhibition (Lineweaver-Burk plot) ([1]; 10 μM MAEA): competitive FAAH inhibitor
- Vmax of AEA hydrolysis in the presence of the compound ([1]; MAEA at 10 μM, 30 minutes): 25.82 nmol/min/mg protein
- Km ([1]; MAEA at 10 μM, 30 minutes, read-out: apparent Km for AEA in the presence of the compound): 62.3 µM
- [3H]-MAEA degraded [4]: less than 1.5%
- specific binding of [3H]-MAEA to microsomes [5]: 6.1%
- Kd ([2]; 2 μg FAAH microsomes, 0.5 mg PVT-WGA beads, estimated, read-out: Kd of specific binding to FAAH microsomes): 25000 nM
- specific binding of [3H]-MAEA to microsomes ([2]; 5 μg microsomes containing FAAH): 90%
- total [3H]-MAEA bound to FAAH microsomes ([2]; 5 μg microsomes, 100 nM [3H]-MAEA, 0.5 mg WGA beads): ~92%

Compound: NC(=O)c1cccc(-c2cccc(OC(=O)NC3CCCCC3)c2)c1 [URB-597]
- SPA counts in the presence of inhibitor ([2]; URB-597 1 μM, 5 μg FAAH microsomes, 100 nM [3H]-MAEA, 160 cpm without inhibitor): 1932 cpm
- effect on the interaction of [3H]-MAEA and the WGA beads ([2]; same concentration of URB-597 (1 μM), no microsomes): no effect

- IC50 [1, 6]: 10.1 nM
- IC50 [2, 7]: 87 nM
Compound: Arachidonoyl trifluoromethyl ketone [ATFK]
